“Also recorded” adds a separate entry of the source.
Columns and labels:
YTHDC1 = target: T1, YTHDC1 (Homo sapiens, UniProt Q96MU7); test: EMSA with YTHDC1; format: binding; settings: m6A RNA 20 nM
T1 construct: YTHDC1 (residues 345–509); made in house; host or cells: Escherichia coli BL21(DE3); plasmid from the Zhou lab (Boston College)
Description: (§1) Compounds with different concentrations (3.1–100 μM) were incubated with 250 nM YTH-domain and 20 nM FAM-17mer-RNA in a buffer containing 20 mM HEPES, pH 8.2, 50 mM NaCl, 0.05% Triton X-100, and 5% v/v glycerol for 20 min at 4 °C. The samples were subjected to 12% native polyacrylamide gel and run at 120 V for 90 min at 4 °C using 0.5× TBE buffer. Gel imaging was performed in ChemiDoc MP (Bio-Rad), and Cy2/Alexa488 fluorescence was detected with a 1-min exposure time. Quantification of the gel image was performed by ImageJ.
Figure S14. The EMSA of YTHDC1 binding to the m6A RNA substrate. (A) The YTHDC1–RNA
complex formation in EMSA using m6A RNA (20 nM) and different concentrations of YTHDC1.
(§2) (1 picture or pasted object on this page, not shown here)

YTHDF3 = target: T2, YTHDF3 (Homo sapiens, UniProt Q7Z739); test: EMSA with YTHDF3; format: binding; settings: m6A RNA 20 nM
T2 construct: YTHDF3 (residues 391–585); made in house; host or cells: Escherichia coli BL21(DE3); plasmid from the Zhou lab (Boston College)
T2 sequence (Q7Z739 391-585): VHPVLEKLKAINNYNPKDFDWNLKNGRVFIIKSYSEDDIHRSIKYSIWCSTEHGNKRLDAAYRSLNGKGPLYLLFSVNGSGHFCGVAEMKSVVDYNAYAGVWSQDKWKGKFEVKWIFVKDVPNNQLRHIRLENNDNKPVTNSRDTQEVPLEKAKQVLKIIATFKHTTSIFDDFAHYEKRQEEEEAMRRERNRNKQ
Description: as §1
Figure S13. The EMSA of YTHDF3 binding to the m 6A RNA substrate. (A) The YTHDF 3–RNA
complex formation in EMSA using m 6A RNA (20 nM) and different concentrations of YTHDF1 . (B)
as §2

[1] = target: T3, YTHDF1 (residues 375-552) (Homo sapiens, UniProt Q9BYJ9); test: FP assay with YTH domain of YTHDF1; format: binding; settings: 0.5 µM YTHDF1, m6A RNA probe 4 nM
T3 construct: Plasmids of the YTH domain of YTHDF1 (residues 375–552); made in house; host or cells: Escherichia coli BL21(DE3); plasmid from the Zhou lab (Boston College)
T3 sequence (Q9BYJ9 375-552): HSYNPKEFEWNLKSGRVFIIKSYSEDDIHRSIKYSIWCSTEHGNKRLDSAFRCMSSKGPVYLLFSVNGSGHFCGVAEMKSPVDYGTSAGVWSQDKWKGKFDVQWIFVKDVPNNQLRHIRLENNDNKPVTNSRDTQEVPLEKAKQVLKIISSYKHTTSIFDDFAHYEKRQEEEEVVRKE
Description: (§3) The FP assay was performed in 384-well black plates (Corning no. 4514) with a total reaction volume of 15 μL. The final concentrations of protein (YTHDF2) and RNA were […], respectively, in a buffer containing 20 mM HEPES/KOH pH 7.5, 50 mM NaCl, 0.005% Tween 20, and 1 mM GSH (DTT). Compounds were incubated with protein, added FAM-m^6A RNA probe ([…](m6)ACUGUG) (purchased from IDT), and incubated at 4 °C for 30 min. The fluorescence polarization was measured using a plate reader (TECAN Spark) under an excitation wavelength of 485 nm and an emission wavelength of 535 nm with a bandwidth of 20 nm. […] The data were determined using GraphPad Prism 9.
Figure S8. The FP assay of YTHDF1 binding to the m6A RNA substrate. (A)The purification of YTHDF1 (residues 375-552), molecular weight: 21.9 kDa. (B) The anisotropy values using different concentrations of YTHDF1 with the m6A RNA probe (4 nM), which was used to decide the appropriate […] concentration for the FP (0.5 µM of YTHDF1, Z-factor: 0.65). (C) The […]
as §2

[2] = target: T4, YTHDC2 (residues 1285-1424) (Homo sapiens, UniProt Q9H6S0); test: FP assay with YTH domain of YTHDC2; format: binding; settings: 5.0 µM YTHDC2
T4 construct: YTHDC2 (residues 1285–1424); made in house; host or cells: Escherichia coli BL21(DE3); plasmid from the Zhou lab (Boston College)
T4 sequence (Q9H6S0 1285-1424): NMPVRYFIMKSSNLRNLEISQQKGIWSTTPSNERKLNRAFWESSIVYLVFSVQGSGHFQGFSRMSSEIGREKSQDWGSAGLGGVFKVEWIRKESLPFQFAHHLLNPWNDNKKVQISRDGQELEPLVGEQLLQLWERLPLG
Description: as §3
Figure S11. The FP assay of YTHDC2 binding to the m6A RNA substrate. (A)The purification of YTHDC2 (residues 1285-1424), molecular weight: 17.4 kDa. (B) The anisotropy values using different concentrations of YTHDC2 with the m6A RNA probe (4 nM), which was used to decide the appropriate YTHDC2 concentration for the FP (5.0 µM of YTHDC2, Z-factor: 0.83). (C) The […]
as §2

[3] = MTT cytotoxicity assay, K562; format: cell-based; settings: human, K562 cells, triplicates, read-out: Cytotoxicity against cancer cells (IC50), K562
Description: (§4) JAR, K562, and HCT116 cells were seeded in 96-well plates (3500 cells/well) and incubated for 8 h. The medium with different concentrations of compounds (100, 33.3, 11.1, 3.7, 1.2, and 0.4 μM) was added to the 96-well plates. Data were normalized to the medium with 0.1% DMSO. After incubation for 72 h, MTT solution (5 mg/mL, 20 μL) was added per well in a dark environment and incubated for 4 h. After the medium was discarded, DMSO (150 μL) was added per well, and the absorbance was measured at 492 nm by a plate reader (TECAN Spark).

[4] = MTT cytotoxicity assay, JAR; format: cell-based; settings: human, JAR cells, triplicates, read-out: Cytotoxicity against cancer cells (IC50), JAR
Description: as §4

[5] = target: T5, YTHDC1 (residues 345-509) (Homo sapiens, UniProt Q96MU7); test: FP assay with YTH domain of YTHDC1; format: binding; settings: 2.0 µM YTHDC1
T5 construct: YTHDC1 (residues 345–509); made in house; host or cells: Escherichia coli BL21(DE3); plasmid from the Zhou lab (Boston College)
Description: as §3
Figure S10. The FP assay of YTHDC1 binding to the m6A RNA substrate. (A) The purification of YTHDC1 (residues 345-509), molecular weight: 19.9 kDa. (B) The anisotropy values using different concentrations of YTHDC1 with the m6A RNA probe (4 nM), which was used to decide the appropriate […] concentration for the FP (2.0 µM of YTHDC1, Z-factor: 0.54). (C) CK- […]
as §2

IC50 ([1]; read-out: IC50 against YTHDF1 in FP) [µM] | inhibition at 100 µM ([2]; read-out: inhibition of YTHDC2 at 100 μM in FP, 100 μM compound) [%] | inhibitory activity against YTHDF1 in FP (in words) [1] | inhibitory activity against YTHDC2 in FP (in words) [2] | SMILES | inhibition of m6A RNA binding to YTHDC1 in EMSA (in words) (YTHDC1) | inhibition of m6A RNA binding to YTHDF3 in EMSA (in words) (YTHDF3) | IC50 at 72 h [3] [µM] | IC50 at 72 h [4] [µM] | inhibitory activity against YTHDC1 in FP (in words) [5]
67.5 | 36.1 |  |  | O=C(O)c1ccc(-n2cc(C(=O)c3cc(Cl)cc(Cl)c3O)cn2)cc1 [CK-61] | did not show detectable inhibitory activity; also recorded: no activity | did not show detectable inhibitory activity; also recorded: no activity | > 50 | > 50 | did not show detectable inhibitory activity
 |  | inactive | inactive | O=C(O)c1ccc(-n2cc(C(=O)c3c(O)ccc4ccccc34)cn2)cc1 [CK-75] | did not show detectable inhibitory activity; also recorded: did not show detectable inhibition | did not show detectable inhibitory activity; also recorded: did not show detectable inhibition | 29.7 | 47.5 | did not show detectable inhibitory activity; also recorded: inactive
 |  | inactive | inactive | Cc1cc(O)c(C(=O)c2cnn(-c3ccc(C(=O)O)cc3)c2)cc1Cl [CK-79] | did not show detectable inhibitory activity; also recorded: did not show detectable inhibition | did not show detectable inhibitory activity; also recorded: did not show detectable inhibition | 29.4 ± 16.7 | 31.6 | did not show detectable inhibitory activity; also recorded: inactive

From PMC11862924, “Phenylpyrazoles as Inhibitors of the m^6A RNA-Binding Protein YTHDF2” (JACS Au, 2025)
